Publication PMC8838521, “Antimicrobial, Cytotoxic and Mutagenic Activity of Gemini QAS Derivatives of 1,4:3,6-Dianhydro-L-iditol” (Molecules, 2022)
Where a name gives a salt, the structure may show the parent alone.

Key:
[1] = system: Candida albicans ATCC 10231; parameters: method as in PMID 16459482; conditions: strain not stated; cited from earlier work
[2] = system: human keratinocytes (HaCaT cell line); assay: Cytotoxicity, MTT assay; assay type: cell-based; conditions: MTT, 24 h incubation
Experimental: To assess the cytotoxicity of QAS (IC50), the MTT assay on 96-well polystyrene plates was performed for human keratinocytes (HaCaT, Elabscience Biotechnology Inc., Houston, Texas, USA). The assay utilizes colorimetric determination of the cell metabolic activity and the color intensity reflects the number of live cells that can be measured spectrophotometrically. The cell line was cultured in a Dulbecco’s modified Eagle Medium (Invitrogen) supplemented with 10% fetal bovine serum (Sigma Aldrich) (v/v), 100 units/mL of penicillin, 100 μg/mL of streptomycin, and 2 mM L-glutamine and was stored at 37 °C in a humidified 5% CO2 incubator. Briefly, a day after plating of 500 cells per well, a series of concentrations (0.5–200 μg/mL) of the test compounds was applied. DMSO was added to the control cells at a final concentration of 1.0% (v/v), which was related to the maximal concentration of the solvent compounds used in the experiment. After 24 h of incubation with the QAS at 37 °C (humidified 5% CO2 incubator), a medium containing 1 mg/mL of MTT (3-(4,5-dimethylthiazol-2-yl)-2,5-diphenyltetrazolium bromide) was added to the wells up to a final concentration of 0.5 mg/mL. Subsequently, the plates were incubated at 37 °C for 4 h. Then, the medium was removed by suction, and the formazan product was solubilized with DMSO. The background absorbance at 630 nm was subtracted from that at 570 nm for each well (Epoch, BioTek Instruments, Winooski, VT, USA). Six replicates were conducted for each concentration. All experiments were repeated at least twice and the resulting IC50 values were calculated with GraFit 7 software (v. 7.0, Erithacus, Berkley, CA, USA).

Escherichia coli K12 = conditions: strain not stated; cited from earlier work
[3] = system: Staphylococcus aureus ATCC 25923; parameters: method as in PMID 23669380; conditions: strain not stated; cited from earlier work

Cn1cc[n+](C2COC3C2OCC3[n+]2ccn(C)c2)c1 (as salt: methanesulfonate) [QAS 6, N,N’-(1,4:3,6-Dianhydro-2,5-dideoxy-L-iditol-2,5-diyl)-bis(N-methylimidazolium) Ditrifluoromethanesulfonate]
melting point: 90.5 to 93.7 °C

CCCCCC[N+](C)(C)C1COC2C1OCC2[N+](C)(C)CCCCCC (as salt: methanesulfonate) [QAS 8, N,N’-(1,4:3,6-Dianhydro-2,5-dideoxy-L-iditol-2,5-diyl)-bis(N,N-dimethyl-N-hexylammonium) Ditrifluoromethanesulfonate]
melting point: 222.8 to 224 °C

NC(=O)c1ccc[n+](C2COC3C2OCC3[n+]2cccc(C(N)=O)c2)c1 (as salt: methanesulfonate) [QAS 5, N,N’-(1,4:3,6-Dianhydro-2,5-dideoxy-L-iditol-2,5-diyl)-bis[(3-carboxamide)pyridinium] Ditrifluoromethanesulfonate]
melting point: 63.5 to 65.2 °C

CCCCCCCCCC[N+](C)(C)C1COC2C1OCC2[N+](C)(C)CCCCCCCCCC (as salt: methanesulfonate) [QAS 10, N,N’-(1,4:3,6-Dianhydro-2,5-dideoxy-L-iditol-2,5-diyl)-bis(N,N-dimethyl-N-decylammonium) Ditrifluoromethanesulfonate]
melting point: 191 °C (dec.)

Benzalkonium chloride [BAC]
MIC against C. albicans [1]: 8 µg/mL | HaCaT IC50 [2]: 1.1 ± 1.4 µg/mL | MIC against E. coli (Escherichia coli K12): 13 µg/mL | MIC against S. aureus [3]: 2 µg/mL
